According to patent US20150274777A1, “KETOAMIDE IMMUNOPROTEASOME INHIBITORS” (HOFFMANN-LA ROCHE INC., priority 2012, published 2015):

Tests used:
β5i = biological target: T1, β5i (Homo sapiens, UniProt P20618+P28062); experiment: Cell-Based Proteasome Activity/Selectivity Assay (Ramos cells), substrate (ANW)2Rh110; conditions: highest concentration tested 20 μM, read-out: Ic50 ramos:ac-(anw)2-r110
T1 construct: protease activity associated with the proteasome complex in cultured cells; endogenous in cells; host or cells: Ramos cells
Procedure, shortened: (§1)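 Ramos cells (5×10^4/well in DPBS) were treated with 4-fold compound dilutions (top 20 μM) for 30 min at 37 °C. A 2× mix of 0.025% digitonin, 20 μM of each Rh110 substrate and 0.5 M sucrose was added, then incubated 120 min at room temperature. Rh110 fluorescence was read at 500/519 nm.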

β5c = biological target: T2, β5c (Homo sapiens, UniProt P20618+P28074); experiment: Cell-Based Proteasome Activity/Selectivity Assay (Ramos cells), substrate (WLA)2Rh110; conditions: highest concentration tested 20 μM
T2 construct: protease activity associated with the proteasome complex in cultured cells; endogenous in cells; host or cells: Ramos cells
Procedure, shortened: as §1

β2c/2i = experiment: Cell-Based Proteasome Activity/Selectivity Assay (Ramos cells), substrate (KQL)2Rh110; conditions: highest concentration tested 20 μM
Procedure, shortened: as §1

β1i = biological target: T3, β1i (Homo sapiens, UniProt P28065+P40306); experiment: Cell-Based Proteasome Activity/Selectivity Assay (Ramos cells), substrate (PAL)2Rh110; conditions: highest concentration tested 20 μM
T3 construct: protease activity associated with the proteasome complex in cultured cells; endogenous in cells; host or cells: Ramos cells
Procedure, shortened: as §1

β1c = biological target: T4, β1c (Homo sapiens, UniProt P28072+Q99436); experiment: Cell-Based Proteasome Activity/Selectivity Assay (Ramos cells), substrate (LLE)2 Rh110; conditions: highest concentration tested 20 μM
T4 construct: protease activity associated with the proteasome complex in cultured cells; endogenous in cells; host or cells: Ramos cells
Procedure, shortened: as §1

[1] = system: IP10 level in PBMCs stimulated with CpG Type A; experiment: PBMC IP-10 Assay; assay type: cell-based; conditions: CpG Type A 2.5 μM
Procedure, shortened: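 Human PBMCs (~2×10^5/well) preincubated 60 min at 37° C. with titrated compound (1% DMSO final), then stimulated with CpG Type A (ODN 2216) at 2.5 μM final overnight. Supernatant IP-10 quantified by AlphaLISA; viability of remaining cells by ATP luminescence.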

[2] = system: mouse CAIA and CIA arthritis models; conditions: cited from earlier work
[3] = system: MRL/lpr lupus-prone mice model; conditions: cited from earlier work
[4] = system: DSS-induced colitis model; conditions: DSS-induced colitis model in mice; cited from earlier work

Row | Structure (SMILES) | IC50 (β5i) | IC50 (β5c) | IC50 (β2c/2i) | IC50 (β1i) | IC50 (β1c) | EC50 [1] | disease score [2] | disease progression [3] | plasma cells numbers and levels of anti-dsDNA IgG [3] | inflammation and tissue destruction [4]
1 | C[C@H](NC(=O)c1cc2ccccc2n1C)C(=O)N[C@@H](Cc1ccccc1)C(=O)N[C@@H](Cc1ccccc1)C(=O)C(=O)NCc1ccccc1 [Example 44, 1-Methyl-1H-indole-2-carboxylic acid {(S)-1-[(S)-1-((S)-1-benzyl-2-benzylcarbamoyl-2-oxo-ethylcarbamoyl)-2-phenyl-ethylcarbamoyl]-ethyl}-amide] | 0.013 µM | 1.24 µM | > 20 µM | 13.1 µM | > 20 µM | 0.596 µM |  |  |  | 
2 | COc1ccc(C[C@H](NC(=O)[C@H](C)NC(=O)c2cc3ncccc3n2C)C(=O)N[C@@H](Cc2ccccc2)C(=O)C(=O)NCc2ccccc2)cc1 [Example 45] | 0.013 µM | 0.25 µM | > 20 µM | 0.496 µM | 6.38 µM | 1.32 µM |  |  |  | 
3 | COc1ccc(C[C@H](NC(=O)[C@H](C)NC(=O)CN2CCOCC2)C(=O)N[C@@H](Cc2ccccc2)C(=O)C(=O)NCc2ccccc2)cc1 [Example 46, (S)—N-Benzyl-3-{(S)-3-(4-methoxy-phenyl)-2-[(S)-2-(2-morpholin-4-yl-acetylamino)-propionylamino]-propionylamino}-2-oxo-4-phenyl-butyramide] | 0.121 µM | 4.41 µM | > 20 µM | 2.17 µM | > 20 µM | 5.78 µM |  |  |  | 
4 | Cc1cc(C(=O)N[C@@H](C)C(=O)N[C@@H](Cc2c[nH]c3ccccc23)C(=O)N[C@@H](Cc2ccccc2)C(=O)C(=O)NCc2ccccc2)no1 [Example 47, 5-Methyl-isoxazole-3-carboxylic acid {(S)-1-[(S)-1-((S)-1-benzyl-2-benzylcarbamoyl-2-oxo-ethylcarbamoyl)-2-(1H-indol-3-yl)-ethylcarbamoyl]-ethyl}-amide] | 0.034 µM | 1.39 µM | > 20 µM | 0.705 µM | 6.27 µM | 2.29 µM |  |  |  | 
5 | CC1=C(C(=O)N[C@@H](C)C(=O)N[C@@H](Cc2c[nH]c3ccccc23)C(=O)N[C@@H](Cc2ccccc2)C(=O)C(=O)NCc2ccccc2)Cc2ccccc21 [Example 48, 3-Methyl-1H-indene-2-carboxylic acid {(S)-1-[(S)-1-((S)-1-benzyl-2-benzylcarbamoyl-2-oxo-ethylcarbamoyl)-2-(1H-indol-3-yl)-ethylcarbamoyl]-ethyl}-amide] | 0.008 µM | 1.01 µM | > 20 µM | 1.17 µM | 13.6 µM | 0.615 µM |  |  |  | 
6 | COc1ccc(C[C@H](NC(=O)[C@H](C)NC(=O)c2cn3ccccc3n2)C(=O)N[C@@H](Cc2ccccc2)C(=O)C(=O)NCc2ccccc2)cc1 [Example 49, Imidazo[1,2-a]pyridine-2-carboxylic acid {(S)-1-[(S)-1-((S)-1-benzyl-2-benzylcarbamoyl-2-oxo-ethylcarbamoyl)-2-(4-methoxy-phenyl)-ethylcarbamoyl]-ethyl}-amide] | 0.105 µM | 1.93 µM | > 20 µM | 0.499 µM | 17.5 µM | 4.37 µM |  |  |  | 
7 | C[C@H](NC(=O)OCc1ccccc1)C(=O)N[C@@H](Cc1ccccn1)C(=O)N[C@@H](Cc1ccccc1)C(=O)C(=O)NCc1ccccc1 [Example 50, {(S)-1-[(S)-1-((S)-1-Benzyl-2-benzylcarbamoyl-2-oxo-ethylcarbamoyl)-2-pyridin-2-yl-ethylcarbamoyl]-ethyl}-carbamic acid benzyl ester] | 0.266 µM | 2.89 µM | > 20 µM | 1.28 µM | > 20 µM | 2.74 µM |  |  |  | 
8 | C[C@H](NC(=O)OCc1ccccc1)C(=O)N[C@@H](Cc1ccc(Cl)cc1)C(=O)N[C@@H](Cc1ccccc1)C(=O)C(=O)NCc1ccccc1 [Example 51, {(S)-1-[(S)-1-((S)-1-Benzyl-2-benzylcarbamoyl-2-oxo-ethylcarbamoyl)-2-(4-chloro-phenyl)-ethylcarbamoyl]-ethyl}-carbamic acid benzyl ester] | 0.021 µM | 5.18 µM | > 20 µM | 9.84 µM | > 20 µM | 2.59 µM |  |  |  | 
9 | C[C@H](NC(=O)N1Cc2ccccc2C1)C(=O)N[C@@H](Cc1ccccc1)C(=O)N[C@@H](Cc1ccccc1)C(=O)C(=O)NCc1ccccc1 [Example 52, 1,3-Dihydro-isoindole-2-carboxylic acid {(S)-1-[(S)-1-((S)-1-benzyl-2-benzylcarbamoyl-2-oxo-ethylcarbamoyl)-2-phenyl-ethylcarbamoyl]-ethyl}-amide] | 0.221 µM | 2.35 µM | > 20 µM | 1.53 µM | 10.3 µM | 4.5 µM |  |  |  | 
10 | Cc1cc(C(=O)N[C@@H](C)C(=O)N[C@@H](Cc2ccccc2)C(=O)N[C@@H](Cc2ccccc2)C(=O)C(=O)NCc2ccccc2)n(C)n1 [Example 53, 2,5-Dimethyl-2H-pyrazole-3-carboxylic acid {(S)-1-[(S)-1-((S)-1-benzyl-2-benzylcarbamoyl-2-oxo-ethylcarbamoyl)-2-phenyl-ethylcarbamoyl]-ethyl}-amide] | 0.221 µM | 1.36 µM | > 20 µM | 1.78 µM | > 20 µM | 4.9 µM |  |  |  | 
11 | CCn1nccc1C(=O)N[C@@H](C)C(=O)N[C@@H](Cc1ccccc1)C(=O)N[C@@H](Cc1ccccc1)C(=O)C(=O)NCc1ccccc1 [Example 54, 2-Ethyl-2H-pyrazole-3-carboxylic acid {(S)-1-[(S)-1-((S)-1-benzyl-2-benzylcarbamoyl-2-oxo-ethylcarbamoyl)-2-phenyl-ethylcarbamoyl]-ethyl}-amide] | 0.066 µM | 1.68 µM | > 20 µM | 0.609 µM | 18.5 µM | 3.45 µM |  |  |  | 
12 | C[C@H](NC(=O)c1cc(C(F)(F)F)nn1C)C(=O)N[C@@H](Cc1ccccc1)C(=O)N[C@@H](Cc1ccccc1)C(=O)C(=O)NCc1ccccc1 [Example 55, 2-Methyl-5-trifluoromethyl-2H-pyrazole-3-carboxylic acid {(S)-1-[(S)-1-((S)-1-benzyl-2-benzylcarbamoyl-2-oxo-ethylcarbamoyl)-2-phenyl-ethylcarbamoyl]-ethyl}-amide] | 0.176 µM | 5.77 µM | > 20 µM | 8.92 µM | > 20 µM | 3.89 µM |  |  |  | 
13 | C[C@H](NC(=O)OCc1ccccc1)C(=O)NC(CC1CCOCC1)C(=O)N[C@@H](Cc1ccccc1)C(=O)C(=O)NCc1ccccc1 (stereo partly drawn) [Example 56, {(S)-1-[1-((S)-1-Benzyl-2-benzylcarbamoyl-2-oxo-ethylcarbamoyl)-2-(tetrahydro-pyran-4-yl)-ethylcarbamoyl]-ethyl}-carbamic acid benzyl ester] | 0.115 µM | 3.12 µM | > 20 µM | 0.879 µM | > 20 µM | 3.23 µM |  |  |  | 
14 | C[C@H](NC(=O)OCc1ccccc1)C(=O)NC(CC(F)(F)F)C(=O)N[C@@H](Cc1ccccc1)C(=O)C(=O)NCc1ccccc1 (stereo partly drawn) [Example 57, {(S)-1-[1-((S)-1-Benzyl-2-benzylcarbamoyl-2-oxo-ethylcarbamoyl)-3,3,3-trifluoro-propylcarbamoyl]-ethyl}-carbamic acid benzyl ester] | 0.524 µM | 6.16 µM | > 20 µM | 2.73 µM | > 20 µM | 5.03 µM |  |  |  | 
15 | C[C@H](NC(=O)OCc1ccccc1)C(=O)N[C@@H](Cc1ccncc1)C(=O)N[C@@H](Cc1ccccc1)C(=O)C(=O)NCc1ccccc1 [Example 58, {(S)-1-[(S)-1-((S)-1-Benzyl-2-benzylcarbamoyl-2-oxo-ethylcarbamoyl)-2-pyridin-4-yl-ethylcarbamoyl]-ethyl}-carbamic acid benzyl ester] | 0.03 µM | 0.96 µM | > 20 µM | 0.478 µM | > 20 µM | 1.33 µM |  |  |  | 
16 | COc1ccc(C[C@H](NC(=O)[C@H](C)NC(=O)C2Cc3ccccc3C2)C(=O)NC2(C(=O)C(=O)NCc3ccccc3)Cc3ccccc3C2)cc1 [Example 59, Indan-2-carboxylic acid {(S)-1-[(S)-1-(2-benzylaminooxalyl-indan-2-ylcarbamoyl)-2-(4-methoxy-phenyl)-ethylcarbamoyl]-ethyl}-amide] | 0.089 µM | 1.36 µM | > 20 µM | > 20 µM | > 20 µM | 11.7 µM |  |  |  | 
17 | COc1ccc(C[C@H](NC(=O)[C@H](C)NC(=O)CN2CCOCC2)C(=O)N[C@@H](Cc2ccccc2)C(=O)[C@@]2(C)CO2)cc1 [PR-957] |  |  |  |  |  |  | significantly decreased | prevented | reduced | reduced
